According to patent US20210323977A1, “PYRROLIDINYL AMIDE COMPOUNDS FOR THE TREATMENT OF AUTOIMMUNE DISEASE” (Hoffmann-La Roche Inc., priority 2018, published 2021):

target: T1, human TLR7 (Homo sapiens, UniProt Q9NYK1); experiment: HEK293-Blue-hTLR-7 cells assay; type: cell-based; conditions: HEK293-Blue-hTLR7 cells, SEAP reporter, R848 stimulation, 20 hrs
T1 sequence (Q9NYK1 27-1049): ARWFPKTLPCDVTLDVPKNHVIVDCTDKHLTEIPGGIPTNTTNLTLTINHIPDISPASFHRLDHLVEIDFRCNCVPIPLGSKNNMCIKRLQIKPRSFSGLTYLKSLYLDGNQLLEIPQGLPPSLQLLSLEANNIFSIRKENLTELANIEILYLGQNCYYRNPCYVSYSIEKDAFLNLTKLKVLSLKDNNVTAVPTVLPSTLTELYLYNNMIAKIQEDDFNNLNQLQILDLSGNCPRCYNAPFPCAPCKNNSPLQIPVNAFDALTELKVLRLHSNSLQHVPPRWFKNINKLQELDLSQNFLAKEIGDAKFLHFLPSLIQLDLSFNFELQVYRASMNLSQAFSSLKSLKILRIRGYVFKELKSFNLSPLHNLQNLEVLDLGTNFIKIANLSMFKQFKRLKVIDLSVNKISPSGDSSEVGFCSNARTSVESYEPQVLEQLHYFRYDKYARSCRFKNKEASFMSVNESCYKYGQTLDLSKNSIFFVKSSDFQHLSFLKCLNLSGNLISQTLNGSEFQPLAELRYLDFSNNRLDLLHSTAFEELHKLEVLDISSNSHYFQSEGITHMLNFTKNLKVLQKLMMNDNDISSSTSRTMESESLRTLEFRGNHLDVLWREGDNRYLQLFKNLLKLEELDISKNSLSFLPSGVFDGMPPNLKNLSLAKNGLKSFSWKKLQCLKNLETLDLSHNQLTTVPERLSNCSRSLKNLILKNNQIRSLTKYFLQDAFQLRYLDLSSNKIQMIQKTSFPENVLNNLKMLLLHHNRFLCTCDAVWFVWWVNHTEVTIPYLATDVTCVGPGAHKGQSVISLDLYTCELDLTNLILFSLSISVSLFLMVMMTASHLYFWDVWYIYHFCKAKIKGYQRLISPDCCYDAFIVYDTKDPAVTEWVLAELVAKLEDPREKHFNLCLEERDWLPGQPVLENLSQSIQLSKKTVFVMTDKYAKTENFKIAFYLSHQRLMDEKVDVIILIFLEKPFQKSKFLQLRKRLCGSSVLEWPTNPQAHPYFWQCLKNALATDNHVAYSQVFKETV
From the text: HEK293-Blue-hTLR-7 Cells Assay:
A stable HEK293-Blue-hTLR-7 cell line was purchased from InvivoGen (Cat. #: hkb-htlr7, San Diego, Calif., USA). These cells were originally designed for studying the stimulation of human TLR7 by monitoring the activation of NF-κB. A SEAP (secreted embryonic alkaline phosphatase) reporter gene was placed under the control of the IFN-β minimal promoter fused to five NF-κB and AP-1-binding sites. The SEAP was induced by activating NF-κB and AP-1 via stimulating HEK-Blue hTLR7 cells with TLR7 ligands. Therefore the reporter expression was declined by TLR7 antagonist under the stimulation of a ligand, such as R848 (Resiquimod), for incubation of 20 hrs. The cell culture supernatant SEAP reporter activity was determined using QUANTI-Blue™ kit (Cat. #: rep-qb1, Invivogen, San Diego, Ca, USA) at a wavelength of 640 nm, a detection medium that turns purple or blue in the presence of alkaline phosphatase.
HEK293-Blue-hTLR7 cells were incubated at a density of 250,000˜450,000 cells/mL in a volume of 170 μL in a 96-well plate in Dulbecco's Modified Eagle's medium (DMEM) containing 4.5 g/L glucose, 50 U/mL penicillin, […], […], 2 mM L-glutamine, 10% (v/v) heat-inactivated fetal bovine serum with addition of 20 sL test compound in a serial dilution in the presence of final DMSO at 1% and 10 μL of 20 uM R848 in above DMEM, perform incubation under 37° C. in a CO2 incubator for 20 hrs. Then 20 μL of the supernatant from each well was incubated with 180 sL Quanti-blue substrate solution at 37° C. for 2 hrs and the absorbance was read at 620-655 nm using a spectrophotometer. The signalling pathway that TLR7 activation leads to downstream NF-κB activation has been widely accepted, and therefore similar reporter assay was modified for evaluating TLR7 antagonist.

SMILES	IC50
N#Cc1ccc(N2C[C@@H](C(F)(F)F)[C@H](C(=O)N[C@H]3CNC[C@H]3F)C2)c2cccnc12 [Example 47, Trans-1-(8-cyano-5-quinolyl)-N-[(3S,4R)-4-fluoropyrrolidin-3-yl]-4-(trifluoromethyl)pyrrolidine-3-carboxamide]	124 nM
C[C@H]1CN(c2ccc(Cl)c3ncccc23)C[C@@H]1C(=O)NC1CCN(C)CC1 [Example 50, (3R,4R)-1-(8-chloro-5-quinolyl)-4-methyl-N-(1-methyl-4-piperidyl)pyrrolidine-3-carboxamide]	178 nM
CN1CCCC(CNC(=O)C2CN(c3ccc(C#N)c4ncccc34)CC23CC3)C1 (centres unmarked) [Example 51, 5-(8-Cyano-5-quinolyl)-N-[(1-methyl-3-piperidyl)methyl]-5-azaspiro[2.4]heptane-7-carboxamide]	201 nM
C[C@@H]1CN(c2ccc(C#N)c3ncccc23)C[C@H]1C(=O)N[C@H]1CNC[C@H]1F [Example 56, Trans-1-(8-cyano-5-quinolyl)-N-[(3S,4R)-4-fluoropyrrolidin-3-yl]-4-methyl-pyrrolidine-3-carboxamide]	282 nM
C[C@H]1CN(c2ccc(C#N)c3nccnc23)C[C@@H]1C(=O)NC1CCN(C2CCNCC2)CC1 [Example 60, (3R,4R)-1-(8-cyanoquinoxalin-5-yl)-4-methyl-N-[1-(4-piperidyl)-4-piperidyl]pyrrolidine-3-carboxamide]	492 nM
